The record followed here is patent publication US8106190B2, “2-aminobenzamide derivatives” (Astellas Pharma Inc., priority 2005, dated 2012).

A word on the IC50: it is the concentration at which inhibition is half-maximal.

One assay concerns mouse (ddY, male). Briefly: Capsaicin test (capsaicin-induced paw-licking behavior). Type of assay: in vivo. As to conditions: oral administration 45 minutes before 1.6 μg capsaicin to planta; 5 minutes observation; vehicle group = 100%. On the procedure:
Inhibitory action on pain behavior of the compounds as the active ingredients of the pharmaceutical preparations of the present invention was evaluated in accordance with the method described in a reference [Neuropharmacol., 31: 1279-1285 (1992)]. That is, when 1.6 μg of capsaicin is administered to a planta of a mouse (ddY, male, 4 to 5 weeks of age), it induces paw-licking behavior. The pain behavior suppressing action was evaluated by measuring the paw-licking behavior expressing time during 5 minutes after the administration. Each test compound was orally administered 45 minutes before the administration of capsaicin. Evaluation of the test compounds was carried out by calculating each inhibition rate of the test compound administration group when the paw-licking behavior expressing time of the vehicle administration group was regarded as 100%.

The target in assay [1] is T1, human VR1 (Homo sapiens, UniProt Q8NER1).
T1 construct: A complete length cDNA coding for human VR1 was obtained; expressed in transfected cells
Briefly: Receptor binding assay ([3H]RTX) using membrane of human VR1 stably expressing HEK 293 cell. As to conditions: [3H]RTX binding, VR1/HEK 293 membrane sample, 37° C. 60 minutes; read-out: VR1 receptor binding inhibitory activity, IC50 value. On the procedure: 1. Receptor Binding Assay Using VR1 Stably Expressing Cell
1) Construction of Human VR1 Stably Expressing Cell
A complete length cDNA coding for human VR1 was obtained by the following method. Firstly, a first strand cDNA was synthesized by carrying out reverse transcription of human brain mRNA using a reverse transcriptase. Next, PCR by Hot Start method was carried out using this first strand cDNA as the template and using Taq DNA polymerase. In the aforementioned PCR, an oligonucleotide consisting of the 424th to 443rd nucleotide sequence of a conventionally known human VR1 cDNA sequence (Genbank AJ277028.1) was used as the sense primer, and an oligonucleotide consisting of a complementary chain sequence of the 3082nd to 3100th nucleotide sequence as the antisense primer, and thermal denaturation was firstly carried out at 98° C. (1 minute) and then a cycle consisting of 98° C. (15 seconds)/63° C. (30 seconds)/72° C. (3 minutes) was repeated 35 times.
Cloning of the thus amplified DNA fragment was carried out using pCR-XL-TOPO vector (TOPO XL PCR Cloning Kit; Invitrogen, USA). The human VR1-cDNA alone was isolated by digesting the resulting plasmid DNA with a restriction enzyme EcoRI and then integrated into pcDNA3.1 (+) plasmid (Invitrogen, USA). In this case, the above genetic engineering operations were carried out by conventionally known methods (Sambrook, J. et al., “Molecular Cloning—A Laboratory Manual”, Cold Spring Harbor Laboratory Press, NY, 2001) and in accordance with the instructions attached to respective reagents.
Next, the resulting pcDNA3.1-VR1 was transferred into HEK 293 cell. By selecting VR1/HEK 293 cells using DMEM medium (Invitrogen, USA) containing 10% FBS, 100 μg/ml streptomycin, 100 U/ml penicillin and 400 μg/ml G 418, a receptor stably expressing cell strain was prepared. The receptor stably expressing cell was sub-cultured in the medium described in the above.
2) Preparation of Membrane Sample
The VR1/HEK 293 cell described in the above was mass-produced in a dish and then, after discarding the medium, scraped out after adding ice-cooled PBS. Centrifugation was carried out at 1000 rpm and at 4° C. for 10 minutes, and the resulting residue was homogenized by adding a homogenization buffer (25 mM Tris-HCl, 220 mM sucrose, pH 7.4) and centrifuged at 2,200 rpm and at 4° C. for 10 minutes. The resulting supernatant was centrifuged at 30,000×g and at 4° C. for 20 minutes and the resulting residue was mixed with 25 mM Tris-HCl, pH 7.4, and centrifuged at 30,000×g and at 4° C. for 20 minutes, and this operation was repeated twice. The resulting residue was suspended in 25 mM Tris-HCl, pH 7.4, and the protein concentration was determined using a protein assay staining solution (Bio-Rad, USA). The thus prepared membrane sample was stored at −80° C.
3) Receptor Binding Assay
This was carried out by modifying the method of [Neurosci., 57: 747-757 (1993)]. As the assay buffer, 25 mM Tris-HCl, 0.025% BSA, pH 7.4 was used. Each test compound, [^3H]RTX 50 μl (about 50,000 dpm; Perkin Elmer Life Science, USA) and the aforementioned membrane sample (protein quantity about 25 μg) were suspended in a microplate to a total volume of 300 μl, incubated at 37° C. for 60 minutes and then incubated on ice for 10 minutes. A 200 μg/50 μl portion of an ice-cooled α1 acid glycoprotein (AGP; Sigma) was added thereto and further incubated for 5 minutes. Completion of the incubation was carried out by rapid filtration of the reaction liquid using a GF/B filter (Perkin Elmer Life Science, USA). After 7 times of washing with ice-cooled 25 mM Tris-HCl buffer (pH 7.4), radioactivity of the filter was measured by a liquid scintillation counter. Regarding the specific binding, a part substituted by 1 μM of RTX among the total binding of [^3H]RTX with the VR1 receptor stably expressing cell membrane fraction was regarded as the specific binding originated from the VR1 receptor. Evaluation of test compounds was carried out in the following manner. […]

The target of assay [2] is T1, human VR1. In words: Inhibitory activity on capsaicin-induced electric current, whole cell patch clamp, VR1 receptor-expressed HEK 293 cells. The note with it: capsaicin 1 μM, voltage-clamped, read-out: IC50 value, inhibition of capsaicin-induced current response. It counts as cell-based. The method, then:
2. Measurement of Inhibitory Activity on Capsaicin-Induced Electric Current Using VR1 Stably Expressing Cell
The VR1 receptor-expressed HEK 293 cells prepared in the aforementioned Test Example 1 were inoculated onto a poly-D-lysine-coated cover glass to a density of from 1 to 1.5×10^4 cells/cm^2. This was allowed to stand still in a CO2 incubator (37° C., 5% CO2) and used in this test after a lapse of from 3 to 15 hours.
By recording whole cell patch clamp for the VR1 receptor-expressed HEK 293 cells under a voltage-clamped condition, the current response induced by topically applying capsaicin (1 μM) to the vicinity of the cells was measured. Test compounds were dissolved in an extracellular liquid and applied to a chamber by multi-barrel. Composition (mM) of the extracellular solution was set to NaCl 145, CsCl 5, CaCl2 1, MgCl2 1, HEPES 10 and glucose 10 [pH=7.3]. Composition (mM) of the intracellular solution was set to CsCl 120, MgCl2 2, HEPES 10, BAPTA 10, Na2 GTP 0.2, Mg ATP 4 and phosphorcreatine Na2 4 [pH=7.2]. By defining the current response of capsaicin in the absence of test compound as 100% and continuously applying each test compound starting from a lower concentration, inhibition rate at each concentration was measured. The IC50 value was calculated by nonlinear recursion from respective inhibition rate.

For a further assay, the system named is rat (SD, male). Briefly: Spinal nerve ligation model test (von Frey hair test). Type of assay: in vivo. As to conditions: L5/L6 spinal nerve ligated rat, oral administration 60 minutes before evaluation. On the procedure:
4. Spinal Nerve Ligation Model Test
Inhibitory action on pain behavior of the compounds as the active ingredients of the pharmaceutical preparations of the present invention was evaluated in accordance with the method described in a reference [Pain, 50: 355-363 (1992)]. Under pentobarbital anesthesia, the lumbar skin and muscle of a rat (SD, male, 5 to 6 weeks of age) were incised and the lumber nerve was exposed by removing the transverse process of lumbar vertebra L 6. The L 5 and L 6 spinal nerves were ligated with a silk thread and then the wound was sutured. The treatment was applied to the left side.
The drug effect evaluation was carried out after 7 to 15 days of the operation. Pain threshold for mechanical stimulus was examined by the von Frey hair (VFH) test.
Individuals having lowered pain threshold were selected in advance by the VFH test on the day before the drug effect evaluation and divided into groups in such a manner that difference in the average threshold value between respective groups becomes small.
The test compounds were orally administered 60 minutes before the drug effect evaluation. […]

Structures can show the parent of a compound that is named as a salt.

T1 sequence (Q8NER1 whole entry): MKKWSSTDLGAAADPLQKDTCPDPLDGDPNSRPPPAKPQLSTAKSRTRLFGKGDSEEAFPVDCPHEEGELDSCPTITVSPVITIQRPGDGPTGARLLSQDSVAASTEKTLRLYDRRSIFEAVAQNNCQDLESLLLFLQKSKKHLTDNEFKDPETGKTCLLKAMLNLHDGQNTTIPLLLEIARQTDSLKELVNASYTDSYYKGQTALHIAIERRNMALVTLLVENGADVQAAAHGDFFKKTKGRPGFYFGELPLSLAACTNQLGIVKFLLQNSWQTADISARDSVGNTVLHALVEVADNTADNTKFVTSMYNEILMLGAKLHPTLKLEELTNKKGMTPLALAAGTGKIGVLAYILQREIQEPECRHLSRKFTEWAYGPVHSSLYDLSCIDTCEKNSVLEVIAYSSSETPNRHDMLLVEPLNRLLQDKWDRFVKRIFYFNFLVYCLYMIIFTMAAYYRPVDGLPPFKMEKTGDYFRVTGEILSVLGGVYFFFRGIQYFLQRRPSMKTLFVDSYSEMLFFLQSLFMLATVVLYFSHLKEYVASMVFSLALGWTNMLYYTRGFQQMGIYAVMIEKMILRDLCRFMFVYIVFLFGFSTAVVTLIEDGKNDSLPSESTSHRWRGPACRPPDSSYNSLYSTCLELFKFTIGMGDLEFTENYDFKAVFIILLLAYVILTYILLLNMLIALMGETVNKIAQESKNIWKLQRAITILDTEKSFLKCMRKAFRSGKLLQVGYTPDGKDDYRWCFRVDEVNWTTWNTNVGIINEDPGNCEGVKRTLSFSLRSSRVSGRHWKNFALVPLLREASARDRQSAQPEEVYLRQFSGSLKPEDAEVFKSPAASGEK

`CN1C(=O)CCc2ccc(NC(=O)c3ccc(Cl)cc3NC3CCCC3)cc21.Cl` [Example 1, 4-chloro-2-(cyclopentylamino)-N-(1-methyl-2-oxo-1,2,3,4-tetrahydroquinolin-7-yl)benzamide hydrochloride]: in the assay with mouse (ddY, male), the “inhibition rate of paw-licking behavior expressing time” value (from here on “inhibition rate”) stood at 45%. Also, the IC50 at human VR1 [1] came out at 12 nM.

In the case of `CCC(CC)Nc1cc(Cl)ccc1C(=O)Nc1ccc2c(c1)N(C)C(=O)CC2` [Example 17], in the assay on mouse (ddY, male), the “inhibition rate” value is 54%. The half-inhibitory concentration (IC50) at human VR1 [1] turned out to be 5.8 nM.

With `CN1C(=O)CCc2ccc(NC(=O)c3ccc(Cl)cc3N[C@H]3CCCC[C@@H]3N3CCCC3)cc21` [Example 54], the “inhibition rate” value with mouse (ddY, male) is 34%.

In the case of `CC1Oc2ccc(NC(=O)c3ccc(C(F)(F)F)cc3NC3CCCCC3)cc2NC1=O` (stereo not drawn) [Example 73], the “inhibition rate” value in the assay with mouse (ddY, male) is reported as 95%.

Regarding `O=C(Nc1ccc2c(c1)N(CCO)C(=O)CC2)c1ccc(C(F)(F)F)cc1NC1CCCCC1` [Example 105, 2-(cyclohexylamino)-N-[1-(2-hydroxyethyl)-2-oxo-1,2,3,4-tetrahydroquinolin-7-yl]-4-(trifluoromethyl)benzamide], at human VR1 [1], the 50% inhibitory concentration (IC50) came out at 4.2 nM.

For the compound `C[C@H]1Oc2ccc(NC(=O)c3ccc(Cl)cc3N[C@@H]3CCCC[C@@H]3N3CCCC3)cc2NC1=O` [Example 106, 4-chloro-N-[(2R)-2-methyl-3-oxo-3,4-dihydro-2H-benzoxazin-6-yl]-2-{[(1R,2S)-2-pyrrolidin-1-ylcyclohexyl]amino}benzamide hydrochloride], the half-inhibitory concentration (IC50) at human VR1 [1] is 52 nM.

In the case of `Cl.O=C1Cc2c(cc(NC(=O)c3ccc(C(F)(F)F)cc3N[C@H]3CCCC[C@@H]3N3CCCC3)cc2C(F)(F)F)N1` [Example 107, N-[2-oxo-4-(trifluoromethyl)-2,3-dihydro-1H-indol-6-yl]-2-{[(1S,2S)-2-pyrrolidin-1-ylcyclohexyl]amino}-4-(trifluoromethyl)benzamide hydrochloride], the “inhibition rate” value in the assay with mouse (ddY, male) is reported as 53%. Besides, the IC50 turned out to be 8.8 nM on human VR1 [2] and 13 nM at human VR1 [1]. For the same compound, the “pain threshold for mechanical stimulus of the operation side leg (VFH test)” value in the assay on rat (SD, male) is “completely restored the threshold value of the operation side leg to the threshold value range of the non-operation side leg”.

Take `Cc1nc2cc(NC(=O)c3ccc(C(F)(F)F)cc3N[C@H]3CCCC[C@@H]3N(C)C)ccc2s1` [Example 108, 2-{[(1S,2S)-2-(dimethylamino)cyclohexyl]amino}-N-(2-methyl-1,3-benzothiazol-5-yl)-4-(trifluoromethyl)benzamide hydrochloride]: on human VR1 [1], the IC50 turned out to be 19 nM.

Take `CN1C(=O)CCc2ccc(NC(=O)c3ccc(Cl)cc3NN3CCCCC3)cc21` [Example 119]: the 50% inhibitory concentration (IC50) on human VR1 [1] amounted to 45 nM.

On to `CN1C(=O)CCc2ccc(NC(=O)c3ccc(C(F)(F)F)cc3N[C@H]3CCCC[C@@H]3N3CCC(C)(C)C3)cc21` [Example 170], for which, on human VR1 [1], the concentration for half-maximal inhibition (IC50) is 2.6 nM.

On to `CN1C(=O)CCc2ccc(NC(=O)c3ccc(C(F)(F)F)cc3NC3(CN4CCCC4)CCCCC3)cc21` [Example 173], for which the IC50 on human VR1 [1] stood at 5.6 nM.

For the compound `CN1C(=O)CCc2ccc(NC(=O)c3ccc(C(F)(F)F)cc3N[C@@H]3CCCC[C@H]3OCc3ccccc3)cc21` [Example 176], the half-inhibitory concentration (IC50) on human VR1 [1] came out at 8.9 nM.

With `CN1C(=O)CCc2ccc(NC(=O)c3ccc(C(F)(F)F)cc3Nc3cccnc3)cc21` [Example 178], the IC50 on human VR1 [1] is 62 nM.

On to `CC1(C)C(=O)Nc2cc(NC(=O)c3ccc(C(F)(F)F)cc3N[C@H]3CCCC[C@@H]3N3CCCC3)ccc21` [Example 248], for which, at human VR1 [1], the half-inhibitory concentration (IC50) is 31 nM.

Turning to `COCCNc1cc(C(F)(F)F)ccc1C(=O)Nc1ccc2sc(C)nc2c1` [Example 307], the concentration for half-maximal inhibition (IC50) on human VR1 [1] was 9.8 nM.

For the compound `Cc1nc2cc(NC(=O)c3ccc(C(F)(F)F)cc3NCc3ccncc3)ccc2s1` [Example 321], in the assay on mouse (ddY, male), the “inhibition rate” value came to 67%. In addition, at human VR1 [1], the IC50 is 25 nM.

In the case of `CC(C)CN1CCC(Nc2cc(C(F)(F)F)ccc2C(=O)Nc2ccc3c(c2)NC(=O)C3(C)C)CC1` [Example 327], the IC50 at human VR1 [1] came to 3.7 nM.

For `CCCCCN1CC[C@H](Nc2cc(C(F)(F)F)ccc2C(=O)Nc2ccc3c(c2)NC(=O)C3(C)C)C1` [Example 334], in the assay on mouse (ddY, male), the “inhibition rate” value worked out at 58%. Also, on human VR1 [1], the IC50 worked out at 23 nM.

As to `CCCCN1CCC(Nc2cc(C(F)(F)F)ccc2C(=O)Nc2ccc3c(c2)NC(=O)C3(C)C)CC1` [Example 335], the “inhibition rate” value in the assay on mouse (ddY, male) was 49%. Besides, the IC50 on human VR1 [1] worked out at 87 nM.

`O=C(Nc1ccc2cccnc2c1)c1ccc(C(F)(F)F)cc1N[C@H]1CCCC[C@H]1N1CCCC1` [Example 367]: the concentration for half-maximal inhibition (IC50) on human VR1 [1] worked out at 15 nM.

With `O=C(Nc1ccc2cccnc2c1)c1ccc(C(F)(F)F)cc1N[C@H]1CCCC[C@@H]1N1CCCC1` [Example 386], the half-inhibitory concentration (IC50) on human VR1 [1] was found to be 18 nM.

Turning to `CN1C(=O)CCc2ccc(NC(=O)c3cc(Cl)cnc3NCC3CC3)cc21` [Example 400], the half-inhibitory concentration (IC50) on human VR1 [1] is 60 nM.
